Reference: PMC5259791 (Scientific Reports, 2017)
Changes are numbered by the printed parent chain.

What was measured:
[1] = biological target: T1, Hsp60 (Homo sapiens, UniProt P10809); test: SPR on immobilized Hsp60; format: binding
T1 construct: purchased Tebu-Bio
Description: Conversely, no affinity of the diterpene towards Hsp60 was observed (Fig. 2c).
SPR analyses were carried out on a BIACORE 3000 instrument (GE-Healthcare). PPARα, PPARγ, PPARδ and HSP60 surfaces were prepared on research−grade CM5 sensor chips (GE Healthcare). Proteins (100 μg/ml in 10 mM CH3COONa, pH 5.0) were immobilized using a standard amine−coupling protocol, to obtain densities of 3–5 kRU. Testing compounds were dissolved in 100% DMSO to obtain 4 mM solutions, and then diluted in PBS containing variable amounts of DMSO, achieving a final DMSO concentration of 0.1%. For each molecule a five−point concentration series (25 nM, 65 nM, 150 nM, 400 nM, 1 μM) was set up. SPR experiments and data elaboration were carried out as reported elsewhere.

[2] = biological target: T2, PPARγ1 (Homo sapiens, UniProt P37231); test: PPRE-luciferase transactivation in HEK293 cells stably expressing exogenous PPARγ; format: cell-based
T2 construct: from a transfected PCDNA-3 vector carrying a complete PPARγ cDNA; expressed in transfected cells
T2 sequence (P37231 1-477 isoform P37231-2): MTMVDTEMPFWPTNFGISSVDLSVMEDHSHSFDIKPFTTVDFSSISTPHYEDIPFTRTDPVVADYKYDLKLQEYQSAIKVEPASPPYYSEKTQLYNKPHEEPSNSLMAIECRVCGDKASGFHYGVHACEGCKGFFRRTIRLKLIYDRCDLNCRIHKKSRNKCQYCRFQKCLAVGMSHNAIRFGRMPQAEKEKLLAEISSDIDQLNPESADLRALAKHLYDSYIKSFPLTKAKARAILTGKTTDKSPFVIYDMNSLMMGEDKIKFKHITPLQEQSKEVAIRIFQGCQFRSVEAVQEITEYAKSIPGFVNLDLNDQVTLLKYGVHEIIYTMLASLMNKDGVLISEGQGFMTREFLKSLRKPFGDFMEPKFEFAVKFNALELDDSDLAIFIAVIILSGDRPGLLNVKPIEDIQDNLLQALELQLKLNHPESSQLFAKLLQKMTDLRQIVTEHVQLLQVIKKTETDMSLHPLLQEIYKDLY
From the text: These cells were selected as they express a fixed and known amount of PPARγ, so that the differences in luciferase activity can be ascribed to the different ligand used. […] (b) Human HEK293T cells were co-transfected with the PPRE-luciferase reporter gene and the wild-type PPARγ1 or its mutant version (C285A).
(§1) HEK293 cells that stably express an exogenous Flag-tagged PPARγ from a transfected PCDNA-3 vector carrying a complete PPARγ cDNA were used for transfection experiments. The PPRE-Luc plasmid contains a luciferase reporter gene under the transcriptional control of three copies of the PPRE (Peroxisome Proliferator Response Element) derived from Acyl-CoA oxidase gene fused upstream to the herpes simplex thymidine kinase (TK) promoter, as described. […] Transient transfection assays were carried out as described in ref. [44]. […] In this case, the experiments were carried out into basal HEK293T cells and the RSV-β-Gal plasmid was used as control for transfection efficiency. […] The wild type and mutant PPARγ containing expression vectors were kindly provided by Dott. Takuma Shiraki. At least three independent experiments were performed for each transfection carried out in duplicate. Luciferase activity was normalized to β-galactosidase activity and reported as fold-induction.

[3] = biological target: T3, PPARγ1 C285A mutant (Homo sapiens, UniProt P37231, C313A); test: PPRE-luciferase transactivation in HEK293T cells co-transfected with PPARγ1 C285A mutant; format: cell-based; settings: C285A mutant versus wild type receptor, 24 h
T3 construct: expressed in transfected cells; host or cells: HEK293T (transient); vectors from Takuma Shiraki
T3 sequence (P37231 1-477 isoform P37231-2 C285A): T2 sequence (P37231 1-477 isoform P37231-2) with C285A
From the text: (b) Human HEK293T cells were co-transfected with the PPRE-luciferase reporter gene and the wild-type PPARγ1 or its mutant version (C285A).
as §1

[4] = system: HT29 cells; test: Western blot of proliferation/apoptosis markers in HT29 cells; format: cell-based
From the text: In addition, the expression of two components of the apoptotic pathway, such as caspase 3 and its substrate Poly (ADP-ribose) polymerase (PARP), was affected resulting in a reduction of the pro-caspase 3 precursor and an increase of the PARP cleaved form. Pre-treatment with GW9662 counteracted both the effects (Fig. 7b,c).
The graphs in (a–c) represent the mean ± SD of the protein/β-actin ratio from two independent experiments for p21^waf1/cip1, Caspase-3 precursor and cleaved PARP proteins, respectively. The graph in (d) represents the mean ± SD of pAKT/AKT ratio from two independent experiments.
Treated and untreated cells were lysed in Ripa buffer (150 mM NaCl, 50 mM Tris-HCl, pH 7.6, 10 mM EDTA, 1% NP-40) containing also a protease inhibitors cocktail and then centrifugated at 17,000 RCF for 10 min, at 4 °C. Supernatant containing total proteins was quantified and 80 μg of each sample were separated on 12% SDS-PAGE. Western blotting assays were carried out] Protein extracts from treated and untreated cells were obtained, quantified and analyzed by Western blot as reported.

[5] = biological target: T1, Hsp60; test: MS-based peptide mapping of Hsp60 incubated with 1; settings: trypsin digestion, LC-MS/MS
Description: PPARγ-LBD and Hsp60 were incubated with a 2:1 molar excess of 1 under stirring for 15 min in PBS at 37 °C. Eluted proteins were loaded on a mono-dimensional 12% SDS-PAGE, stained with Brilliant Blue G-Colloidal, reduced, and digested by trypsin. The resulting fragments were extracted and analyzed by LC-MS/MS using the same instrument and protocol described before. Peptide identification was performed by MS and MS/MS data using Mascot (Matrix Science) to interrogate the Swiss Prot non-redundant protein database.

[6] = system: HT-29 cells; test: HT-29 cell growth (cell counting)
Description: Data are the mean ± SD of three independent experiments performed in duplicate giving similar results. Significance is indicated as *p ≤ 0.05, **p ≤ 0.01 and ***p ≤ 0.001. (b) HT29 cells were seeded in 24-well in order to reach the density of cells/cm^2 in standard conditions (10^5 cells). […] The experiments were performed in triplicate and the data expressed as mean ± SD. Significance is indicated as **p ≤ 0.01 and ***p ≤ 0.001.

[7] = exposure for 6 h, compound alone

T1 sequence (P10809 27-573): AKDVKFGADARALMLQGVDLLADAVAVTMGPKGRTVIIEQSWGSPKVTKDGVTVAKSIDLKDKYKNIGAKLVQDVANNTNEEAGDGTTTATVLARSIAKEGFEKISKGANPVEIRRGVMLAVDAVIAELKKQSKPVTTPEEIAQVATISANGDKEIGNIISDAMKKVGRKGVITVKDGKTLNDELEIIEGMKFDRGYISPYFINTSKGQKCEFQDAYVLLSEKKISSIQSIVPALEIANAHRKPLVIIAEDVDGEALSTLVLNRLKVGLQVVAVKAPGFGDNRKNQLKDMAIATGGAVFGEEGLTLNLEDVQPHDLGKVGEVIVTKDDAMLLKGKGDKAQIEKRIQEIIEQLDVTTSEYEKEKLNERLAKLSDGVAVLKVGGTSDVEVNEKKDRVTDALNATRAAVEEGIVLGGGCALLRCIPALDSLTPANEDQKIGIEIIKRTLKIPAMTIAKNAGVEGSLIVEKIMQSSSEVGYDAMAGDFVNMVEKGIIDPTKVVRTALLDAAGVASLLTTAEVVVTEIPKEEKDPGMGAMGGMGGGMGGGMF

C=C1C(=O)C23CCC4C(C(=O)OC)CC(O)CC4(C)C2CCC1C3 (stereo not shown) [Compound 1, 15-ketoatractyligenin methyl ester]
affinity towards Hsp60 [1]: no affinity
effect of detergent on transactivation activity profile ([2]; 0.001% Tween 20 in the medium): not find any variation in the bell-shaped activity profile
concentration at peak of luciferase activity ([2]; 24 h treatment, HEK293 stably expressing PPARγ): 1 µM
transactivation activity lower than Rosiglitazone ([2]; 24 h treatment, relative to Rosiglitazone): about 40%
type of PPARγ agonism ([2]; transactivation assay): partial agonist
luciferase activity with C285A mutant [3]: even lower luciferase activity
p21^waf1/cip1 levels [4, 7]: sharply increased
p-AKT levels [4, 7]: robust reduction
PARP cleaved form ([4]; exposure for 48 h): increase
pro-caspase 3 precursor expression ([4]; exposure for 48 h): reduction
covalent modification of Hsp60 [5]: no peptide covalently modified
inhibition of cell growth ([6]; 1, 5 and 10 μM for 24 and 48 h): more pronounced dosage-dependent inhibition of cell growth than Rosiglitazone
cell counts after GW9662 pre-treatment versus compound alone ([6]; GW9662 10 μM 6 h, then compound 10 μM for 24 and 48 h): increased cell counts
